Consider 21 molecules from PubChem BioAssay AID330 (DTP/NCI, 2004).

SMILES strings stand for the structures. Values joined by “and” are separate entries in the source; they are usually repeats but may differ in a detail not shown here. Equal values may be shown once. Inconclusive results and toxic doses are left out.

For the assay, the system named is P388 leukemia ip, CD2F1 mice, survival T/C. The assay can be described thus: NCI In Vivo Anticancer Drug Screen. Data for tumor model P388 Leukemia (intraperitoneal) in CD2F1 (CDF1) mice. Particulars: endpoint: median survival time, higher = longer survival. An outline of the steps:
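Mice carrying the transplanted tumor received test compound or vehicle. Survival was recorded in each group, and the value is the treated-group measurement divided by that of the vehicle-treated control group.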

Setting [1] is: dose: 100.0 mg/kg/injection, schedule: Q01DX001 (ip), vehicle: Klucel (hydroxypropylcellulose) (HPC).
The mark [2] stands for this setting: dose: 25.0 mg/kg/injection, schedule: Q01DX009 (ip), vehicle: other.
Where [3] appears, read: dose: 50.0 mg/kg/injection, schedule: Q01DX009 (ip), vehicle: saline.
Setting [4] is: dose: 100.0 mg/kg/injection, schedule: Q01DX009 (ip), vehicle: saline.
The mark [5] stands for this setting: dose: 200.0 mg/kg/injection, schedule: Q01DX009 (ip), vehicle: saline.
[6] abbreviates: dose: 12.5 mg/kg/injection, schedule: Q01DX009 (ip), vehicle: saline.
Setting [7] is: dose: 25.0 mg/kg/injection, schedule: Q01DX009 (ip), vehicle: saline.
[8] abbreviates: dose: 50.0 mg/kg/injection, schedule: Q01DX009 (ip), vehicle: saline with Tween-80.
The mark [9] stands for this setting: dose: 100.0 mg/kg/injection, schedule: Q01DX009 (ip), vehicle: saline with Tween-80.
Where [10] appears, read: dose: 200.0 mg/kg/injection, schedule: Q01DX009 (ip), vehicle: saline with Tween-80.

As to `COC(=O)C1=CCC23CC[C@H](C(C)(/C=C/C=C(\C)C(=O)O)OC2=O)[C@]3(O)CC1` (some centres not stated), the T/C is 87 % of control (dose: 3.88 mg/kg/injection, schedule: Q01DX005 (ip), vehicle: sodium bicarbonate); 100 % of control (dose: 7.75 mg/kg/injection, schedule: Q01DX005 (ip), vehicle: sodium bicarbonate); 103 % of control (dose: 15.5 mg/kg/injection, schedule: Q01DX005 (ip), vehicle: sodium bicarbonate); 108 % of control (dose: 31.0 mg/kg/injection, schedule: Q01DX005 (ip), vehicle: sodium bicarbonate).
Regarding `O=c1sc2ccccc2nc1NNc1ccccc1`, the T/C runs as follows: (dose: 50.0 mg/kg/injection, schedule: Q01DX005 (ip), vehicle: saline with Tween-80) 90 % of control; (dose: 100.0 mg/kg/injection, schedule: Q01DX005 (ip), vehicle: saline with Tween-80) 90 % of control.
For the molecule `COc1ccc(C(=O)CC(=O)CCC(=O)Nc2cc(C)ccc2C)cc1`, the T/C (dose: 60.0 mg/kg/injection, schedule: Q01DX005 (ip), vehicle: saline with Tween-80) is 101 % of control; the T/C (dose: 120.0 mg/kg/injection, schedule: Q01DX005 (ip), vehicle: saline with Tween-80) was 105 % of control; the T/C (dose: 240.0 mg/kg/injection, schedule: Q01DX005 (ip), vehicle: saline with Tween-80) was 97 % of control.
In the case of `O=NN(CCCl)C(=O)Oc1cc(Cl)c(Cl)cc1Cl`, the T/C (dose: 25.0 mg/kg/injection, schedule: Q01DX001 (ip), vehicle: Klucel (hydroxypropylcellulose) (HPC)) is 116 % of control; the T/C (dose: 50.0 mg/kg/injection, schedule: Q01DX005 (ip), vehicle: Klucel (hydroxypropylcellulose) (HPC)) was 86 % of control; the T/C (dose: 75.0 mg/kg/injection, schedule: Q01DX001 (ip), vehicle: Klucel (hydroxypropylcellulose) (HPC)) was 154 % of control and 250 % of control; the T/C under setting [1] is 258 % of control.
Take `CNC(=O)OCc1c(COC(=O)NC)c(-c2ccc(Cl)cc2Cl)n2c1CCC2`: where the note is “dose: 100.0 mg/kg/injection, schedule: Q01DX009 (ip), vehicle: distilled water + Tween-80”, the T/C is 164 % of control.
As for `Cc1cc(C(F)(F)F)nc2nc3ccccc3n12`, the T/C was 101 % of control (dose: 60.0 mg/kg/injection, schedule: Q01DX005 (ip), vehicle: Klucel (hydroxypropylcellulose) (HPC)); 102 % of control (dose: 120.0 mg/kg/injection, schedule: Q01DX005 (ip), vehicle: Klucel (hydroxypropylcellulose) (HPC)); 89 % of control (dose: 240.0 mg/kg/injection, schedule: Q01DX005 (ip), vehicle: Klucel (hydroxypropylcellulose) (HPC)).
`O=C1C=CC(=O)c2c1c(O)c1ccccc1c2Cl`: the T/C was 102 % of control (dose: 6.25 mg/kg/injection, schedule: Q01DX005 (ip), vehicle: saline); 95 % of control (dose: 12.5 mg/kg/injection, schedule: Q01DX005 (ip), vehicle: saline); 93 % of control (dose: 25.0 mg/kg/injection, schedule: Q01DX005 (ip), vehicle: saline).
For `CC1=NC(c2ccccn2)=NNC(c2ccccn2)=C1c1ccccc1`, the T/C reads like this: under setting [2], 113 % of control; (dose: 50.0 mg/kg/injection, schedule: Q01DX009 (ip), vehicle: other) 116 % of control; (dose: 100.0 mg/kg/injection, schedule: Q01DX009 (ip), vehicle: other) 116 % of control; (dose: 200.0 mg/kg/injection, schedule: Q01DX009 (ip), vehicle: other) 114 % of control; (dose: 400.0 mg/kg/injection, schedule: Q01DX009 (ip), vehicle: other) 120 % of control.
`Cc1ccc(CCN(S(=O)(=O)c2ccc(C)cc2)S(=O)(=O)c2ccc(C)cc2)cc1`: the T/C (dose: 50.0 mg/kg/injection, schedule: Q01DX009 (ip), vehicle: Klucel (hydroxypropylcellulose) (HPC)) was 92 % of control; the T/C (dose: 100.0 mg/kg/injection, schedule: Q01DX009 (ip), vehicle: Klucel (hydroxypropylcellulose) (HPC)) was 96 % of control; the T/C (dose: 200.0 mg/kg/injection, schedule: Q01DX009 (ip), vehicle: Klucel (hydroxypropylcellulose) (HPC)) was 86 % of control.
As to `C=CCN1Cc2ccccc2-c2ccccc2C1`, the T/C reads like this: under setting [3], 94 % of control; under setting [4], 106 % of control; under setting [5], 108 % of control.
With `COc1cc2c(cc1OC)CC[N+](CCC[N+](C)(C)C)=C2`, the T/C is 104 % of control under setting [6], 95 % of control under setting [7], 97 % of control under setting [3] and 89 % of control under setting [4].
For `COC1=CC(c2ccccc2)=N/C1=C/c1ccc[nH]1`, the T/C runs as follows: (dose: 50.0 mg/kg/injection, schedule: Q01DX001 (ip), vehicle: Klucel (hydroxypropylcellulose) (HPC)) 95 % of control; under setting [1], 100 % of control; (dose: 200.0 mg/kg/injection, schedule: Q01DX001 (ip), vehicle: Klucel (hydroxypropylcellulose) (HPC)) 98 % of control.
`O=C(Nc1ccccc1)OCc1ccc(OCc2ccccc2)cc1`: the T/C is, setting by setting: (dose: 25.0 mg/kg/injection, schedule: Q01DX009 (ip), vehicle: saline with Tween-80) 107 % of control and 94 % of control; under setting [8], 110 % of control and 95 % of control; under setting [9], 104 % of control and 89 % of control; under setting [10], 95 % of control.
Take `O=C1CCCCc2scc(C(=O)O)c2N1`: the T/C (dose: 100.0 mg/kg/injection, schedule: Q04DX003 (ip), vehicle: Klucel (hydroxypropylcellulose) (HPC)) is 104 % of control; the T/C (dose: 200.0 mg/kg/injection, schedule: Q04DX003 (ip), vehicle: Klucel (hydroxypropylcellulose) (HPC)) is 111 % of control; the T/C (dose: 400.0 mg/kg/injection, schedule: Q04DX003 (ip), vehicle: Klucel (hydroxypropylcellulose) (HPC)) is 102 % of control.
As for `CC/C(=N/N(C)C)C(=O)O`, the T/C runs as follows: (dose: 60.0 mg/kg/injection, schedule: Q01DX005 (ip), vehicle: saline) 102 % of control; (dose: 120.0 mg/kg/injection, schedule: Q01DX005 (ip), vehicle: saline) 105 % of control; (dose: 240.0 mg/kg/injection, schedule: Q01DX005 (ip), vehicle: saline) 98 % of control.
Regarding `O=NNc1ccc(Sc2ccc3ccccc3c2)cn1`, the T/C is 114 % of control and 122 % of control (dose: 3.12 mg/kg/injection, schedule: Q01DX009 (ip), vehicle: saline); 120 % of control (dose: 6.25 mg/kg/injection, schedule: Q01DX009 (ip), vehicle: saline); 114 % of control under setting [6].
Consider `CCOC(=O)CC1=NN=C(N)SC1`, for which the T/C is 100 % of control under setting [6]; 101 % of control and 103 % of control under setting [7]; 101 % of control and 106 % of control under setting [3]; 93 % of control and 97 % of control under setting [4]; 87 % of control under setting [5].
With `COc1cccc2c1C(=O)c1c(O)c3c(c(O)c1C2=O)CC(O)(/C(C)=N/NC(=S)c1ccccc1)CC3OC1CC(N)C(O)C(C)O1` (configuration not stated), the T/C was 88 % of control (dose: 3.13 mg/kg/injection, schedule: Q01DX009 (ip), vehicle: other); 96 % of control (dose: 6.25 mg/kg/injection, schedule: Q01DX009 (ip), vehicle: other); 154 % of control (dose: 6.25 mg/kg/injection, schedule: Q04DX003 (ip), vehicle: saline); 103 % of control (dose: 12.5 mg/kg/injection, schedule: Q01DX009 (ip), vehicle: other); 159 % of control (dose: 12.5 mg/kg/injection, schedule: Q04DX003 (ip), vehicle: saline); 88 % of control under setting [2]. Further, the T/C (dose: 25.0 mg/kg/injection, schedule: Q04DX003 (ip), vehicle: saline) is 166 % of control.
Regarding `Cc1cc(N(CCCl)CCCl)c(C)cc1NC(=O)c1ccccc1`, the T/C was 159 % of control (dose: 16.5 mg/kg/injection, schedule: Q04DX003 (ip), vehicle: saline with Tween-80); 177 % of control (dose: 25.0 mg/kg/injection, schedule: Q04DX003 (ip), vehicle: saline with Tween-80); 90 % of control (dose: 37.5 mg/kg/injection, schedule: Q04DX003 (ip), vehicle: saline with Tween-80); 90 % of control (dose: 50.0 mg/kg/injection, schedule: Q04DX003 (ip), vehicle: saline with Tween-80).
With `Cc1nc(C)n2cnnc2c1C`, the T/C was 96 % of control (dose: 100.0 mg/kg/injection, schedule: Q04DX003 (ip), vehicle: saline) and 95 % of control (dose: 200.0 mg/kg/injection, schedule: Q04DX003 (ip), vehicle: saline).
`CN1NC(C)(c2cccnc2)SC1=S` (configuration not stated): the T/C under setting [8] was 95 % of control, the T/C under setting [9] was 100 % of control and the T/C under setting [10] was 97 % of control.
